Results reported in US10898577B2, “Conjugate of ginsenoside compound K and glycol chitosan and an anti-tumor use thereof” (priority 2015, dated 2021).

Test system: HT-29 (human colon cancer) cell line
Method: To observe the anticancer activity of the GC-CK conjugates, the cytotoxicity of pure GC, CK, and GC-CK conjugates were confirmed in anticancer cells by MTT assay.
Specifically, the HT-29 (human colon cancer) cell line was purchased from the Korean Cell Line Bank (Seoul, Korea) and cultured in RPMI 1640 medium (Welgene, Inc.) containing 1% (w/v) penicillin-streptomycin (Welgene, Inc.) and 10% (v/v) FBS (Welgene, Inc.) in 5% CO2 and 95% humidity at 37° C. The cells were inoculated at a density of 2×10^4 cells/well in 96-well plates (SPL Life Sciences, Korea). After growing for 24 h, the culture medium was replaced with the culture medium containing 100 μL, of various concentrations of GC, standard GC, and GC-CK and cultured for 24 h at 37° C. Next, 10 μL of 3-(4, 5-dimethylthiazol-2-yl)-2, 5-diphenyl-tertazolium bromide) (MTT) was added and the plates were cultured for 3 hours at 37° C. The culture medium was then removed and blue formazan crystals were dissolved with 100 μL of DMSO. The optical density was measured at 570 nm using a Synergy HT multidetection microplate reader (Molecular Devices, BioTek Instruments, Winooski, Vt., USA).

## Glycol chitosan [GC]
  cytotoxicity in HT29 cells: did not exhibit any cytotoxicity
